These are literature values, as cited in patent US20230084129A1, “PHARMACEUTICAL COMPOSITION COMPRISING ESOMEPRAZOLE AND SODIUM BICARBONATE HAVING EXCELLENT RELEASE PROPERTIES” (Chong Kun Dang Pharmaceutical Corp., priority 2020, published 2023).

The conditions of the data set: aqueous solution having a pH of 3 or less.

Regarding `COc1ccc2nc([S@@+]([O-])Cc3ncc(C)c(OC)c3C)[nH]c2c1` [esomeprazole, (S)-5-methoxy-2-[(4-methoxy-3,5-dimethyl-2-pyridinyl)-methyl]sulfinyl-1H-benzimidazole], the degradation half-life entry is “less than 10 minutes”.
